Experimental data: PubChem BioAssay (NCI)
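The compound was tested at five concentrations on cells cultured in 96-well plates, with a 48-hour exposure period. Here, GI50 denotes the concentration required for 50% inhibition of growth. TGI: total growth inhibition.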

Legend:
Experiment in all cases: growth of human tumour cells (NCI), 48 h
[1] = system: DMS 114 small cell lung
[2] = system: EKVX NSCLC
[3] = system: LXFL 529 NSCLC
[4] = system: HCT-116 colon
[5] = system: SNB-78 CNS
[6] = system: SW-620 colon
[7] = system: OVCAR-3 ovarian
[8] = system: DMS 273 small cell lung
[9] = system: ACHN renal
[10] = system: NCI/ADR-RES ovarian
[11] = system: MCF7 breast
[12] = system: CAKI-1 renal
[13] = system: SF-295 CNS
[14] = system: DLD-1 colon
[15] = system: A498 renal
[16] = system: NCI-H522 lung

SMILES	TGI [1]	TGI [2]	TGI [3]	TGI [4]	TGI [5]	TGI [6]	TGI [7]	TGI [8]	TGI [9]	GI50 [2]	GI50 [10]	TGI [10]	GI50 [11]	TGI [11]	GI50 [6]	TGI [12]	TGI [13]	TGI [14]	TGI [15]	TGI [16]
Cc1cc(=O)[nH]c(NN2C(Cl)C(=O)C2c2c(O)ccc3ccccc23)n1 (stereo not drawn)	56000 nM	> 100000 nM	30300 nM	48800 nM	70400 nM	> 100000 nM	64900 nM	33100 nM	> 100000 nM											
c1ccc(C2=NN[C@H](c3cn(-c4ccccc4)nc3-c3ccccc3)C2)cc1		> 100000 nM				> 100000 nM				4000 nM	3980 nM	> 100000 nM	> 100000 nM	> 100000 nM	9340 nM					
Cc1n(CC(C)C)c2c([n+]1CC(=O)c1ccc([N+](=O)[O-])cc1)C(=O)c1ccccc1C2=O					107 nM	< 36 nM		161 nM				2910 nM		< 10 nM		1130 nM	1510 nM	797 nM	2210 nM	< 10 nM
C=CCCCCn1c2ccccc2c2c(C)c3c[n+](C)ccc3c(C)c21	811 nM		1320 nM	1250 nM		1340 nM	1520 nM		12800 nM							39000 nM	2600 nM	2520 nM	4420 nM	608 nM
